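Each compound was tested at five concentrations against cells in 96-well plates for 48 hours. TGI: total growth inhibition.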
How the values were obtained:
Assay in all cases: DTP human tumour cell line panel, 48 h
[1] = system: 786-0 renal
[2] = system: HOP-92 NSCLC
[3] = system: SNB-19 CNS
[4] = system: OVCAR-3 ovarian
[5] = system: MALME-3M melanoma
[6] = system: NCI-H522 lung
[7] = system: RXF 393 renal
[8] = system: SF-268 CNS
[9] = system: KM12 colon
[10] = system: SNB-75 CNS
[11] = system: NCI-H226 lung
[12] = system: NCI-H460 lung
[13] = system: HOP-62 NSCLC
[14] = system: HCC-2998 colon
[15] = system: UACC-62 melanoma
[16] = system: COLO 205 colon
[17] = system: RPMI-8226 leukemia
[18] = system: SK-MEL-5 melanoma
[19] = system: SK-MEL-2 melanoma
[20] = system: ACHN renal
[21] = system: HCT-116 colon
[22] = system: LOX IMVI melanoma
[23] = system: CCRF-CEM leukemia
[24] = system: OVCAR-8 ovarian
[25] = system: IGROV1 ovarian
[26] = system: CAKI-1 renal
[27] = system: SW-620 colon
[28] = system: OVCAR-5 ovarian
[29] = system: M14 melanoma
[30] = system: A549 NSCLC
[31] = system: MCF7 breast
[32] = system: SF-295 CNS
[33] = system: TK-10 renal
[34] = system: U251 CNS
[35] = system: NCI/ADR-RES ovarian
[36] = system: SN12C renal
[37] = system: UACC-257 melanoma
[38] = system: EKVX NSCLC
[39] = system: OVCAR-4 ovarian
[40] = system: PC-3 prostate
[41] = system: SF-539 CNS
[42] = system: SR leukemia
[43] = system: BT-549 breast
[44] = system: DU-145 prostate
[45] = system: UO-31 renal
[46] = system: K-562 leukemia
[47] = system: HL-60(TB) leukemia
[48] = system: MOLT-4 leukemia
[49] = system: SK-MEL-28 melanoma
[50] = system: SK-OV-3 ovarian
[51] = system: HT29 colon
[52] = system: HCT-15 colon
[53] = system: NCI-H23 lung
[54] = system: MDA-N
[55] = system: HS 578T breast
[56] = system: A498 renal
[57] = system: MDA-MB-435
[58] = system: MDA-MB-231 breast

## CCOC(=O)C1OC(=O)CC1C1(C(=O)OCC)C=CC(=O)O1 (stereo not drawn)
[1]
  TGI: > 100 µM
[2]
  TGI: > 100 µM
[3]
  TGI: > 100 µM
[4]
  TGI: > 100 µM
[5]
  TGI: > 100 µM
[6]
  TGI: > 100 µM
[7]
  TGI: > 100 µM
[8]
  TGI: > 100 µM
[9]
  TGI: > 100 µM
[10]
  TGI: > 100 µM
[11]
  TGI: > 100 µM
[12]
  TGI: 58.1 µM
[13]
  TGI: > 100 µM
[14]
  TGI: > 100 µM
[15]
  TGI: > 100 µM
[16]
  TGI: > 100 µM
[17]
  TGI: > 100 µM
[18]
  TGI: > 100 µM
[19]
  TGI: > 100 µM
[20]
  TGI: > 100 µM
[21]
  TGI: > 100 µM
[22]
  TGI: 93.3 µM
[23]
  TGI: > 100 µM
[24]
  TGI: > 100 µM
[25]
  TGI: > 100 µM
[26]
  TGI: > 100 µM
[27]
  TGI: > 100 µM
[28]
  TGI: > 100 µM
[29]
  TGI: > 100 µM
[30]
  TGI: > 100 µM
[31]
  TGI: > 100 µM
[32]
  TGI: > 100 µM
[33]
  TGI: > 100 µM
[34]
  TGI: > 100 µM
[35]
  TGI: > 100 µM
[36]
  TGI: > 100 µM
[37]
  TGI: > 100 µM
[38]
  TGI: > 100 µM
[39]
  TGI: > 100 µM
[40]
  TGI: > 100 µM
[41]
  TGI: > 100 µM
[42]
  TGI: > 100 µM
[43]
  TGI: > 100 µM
[44]
  TGI: > 100 µM
[45]
  TGI: > 100 µM
[46]
  TGI: > 100 µM
[47]
  TGI: > 100 µM
[48]
  TGI: > 100 µM
[49]
  TGI: > 100 µM
[50]
  TGI: > 100 µM
[51]
  TGI: > 100 µM
[52]
  TGI: > 100 µM
[53]
  TGI: > 100 µM
[54]
  TGI: > 100 µM

## CC1CC/C(=C\c2ccc(F)cc2)C2=C1C(c1ccc(F)cc1)n1c(s/c(=C/c3cccc(Br)c3)c1=O)=N2 (stereo not drawn)
[1]
  TGI: > 100 µM
[2]
  TGI: > 100 µM
[3]
  TGI: > 100 µM
[7]
  TGI: > 100 µM
[55]
  TGI: > 100 µM
[8]
  TGI: > 100 µM
[9]
  TGI: > 100 µM
[10]
  TGI: > 100 µM
[56]
  TGI: > 100 µM
[13]
  TGI: > 100 µM
[15]
  TGI: > 100 µM
[17]
  TGI: > 100 µM
[18]
  TGI: > 100 µM
[19]
  TGI: > 100 µM
[20]
  TGI: > 100 µM
[21]
  TGI: > 100 µM
[22]
  TGI: > 100 µM
[23]
  TGI: > 100 µM
[57]
  TGI: > 100 µM
[24]
  TGI: > 100 µM
[25]
  TGI: > 100 µM
[26]
  TGI: > 100 µM
[58]
  TGI: > 100 µM
[27]
  TGI: > 100 µM
[28]
  TGI: > 100 µM
[29]
  TGI: > 100 µM
[30]
  TGI: > 100 µM
[31]
  TGI: > 100 µM
[33]
  TGI: > 100 µM
[34]
  TGI: > 100 µM
[36]
  TGI: > 100 µM
[37]
  TGI: > 100 µM
[38]
  TGI: > 100 µM
[40]
  TGI: > 100 µM
[42]
  TGI: > 100 µM
[44]
  TGI: > 100 µM
[46]
  TGI: > 100 µM
[47]
  TGI: > 100 µM
[48]
  TGI: > 100 µM
[49]
  TGI: > 100 µM
[50]
  TGI: > 100 µM
[51]
  TGI: > 100 µM
[52]
  TGI: > 100 µM
[54]
  TGI: > 100 µM

Reference: PubChem BioAssay (NCI)
